Measured values published in patent publication US5843968A, “Symmetrical bis-heteroarylmethoxy-phenylalkyl carboxylates as inhibitors of leukotriene biosynthesis” (Abbott Laboratories, priority 1997, dated 1998).
Structures can show the parent of a compound that is named as a salt. Where two headings read alike, the source gives them in different places.

How the values were obtained:
5-Lipoxygenase = test: Inhibition of calcium ionophore-induced LTB4 formation in human polymorphonuclear leukocytes (PMNL), in vitro; assay type: cell-based; conditions: 15 min preincubation, calcium ionophore stimulation 10 min at 37° C., LTB4 by enzyme-linked immunoassay or HPLC, read-out: IC50, In Vitro Inhibitory Potencies Against 5-Lipoxygenase From Stimulated LTB4 Formation in Human Polymorphonuclear Leukocytes
Method: Inhibition of leukotriene biosynthesis was evaluated in vitro using an assay involving calcium ionophore-induced LTB4 expressed in human polymorphornuclear leukocytes (PMNL). Human PMNL isolated from heparinized (20 USP units/mL) venous blood (25 mL) obtained from healthy volunteers was layered over an equal volume of Ficoll-Hypaque Mono-Poly Resolving Medium (ICN Flow, Costa Mesa, Calif.) and centrifugated at 400×g for 40 minutes at 20° C. The PMNL was collected, erythrocytes lysed and washed 2× and suspended at 1.0×10^7 cells/mL in Earle's balanced salt solution with 17 mM Earle's HEPES. Aliquots of the cell suspension were preincubated with test compounds dissolved in DMSO (final concentration <2%) for 15 minutes and stimulated with calcium ionophore (final concentration 8.3, μM) for 10 minutes at 37° C. Incubations were stopped with the addition of two volumes of ice-cold methanol followed by centrifuging the cell suspensions at 4° C. for 10 minutes at ~450×g. The amount of LTB4 in the methanol extract was analyzed by enzyme-linked immunoassay or by HPLC analysis.

leukotriene biosynthesis = test: Inhibition of leukotriene biosynthesis in vivo, Ionophore-Induced Rat Pleural Inflammation Model; conditions: 0.5 h, male rats, dosed in 0.2% methocel one hour prior to intrapleural A23187, lavage 30 min later, enzyme immunoassay
Method: Inhibition of leukotriene biosynthesis in vivo was evaluated using the Ionophore […]-Induced Rat Plueral Inflammation Model. […] Rats were dosed with experimental compounds in 0.2% methocel one hour prior to the intrapleural injection of the calcium ionophore, A23187. The rats where lightly anesthetized with Pentrane (Abbott Laboratories) and injected intrapleurally with 0.5 ml of 2% ethanol in injectable saline (Abbott Laboratories) containing 20 μg of A23187 (Cal BioChem-Novabiochem). Thirty minutes later the animals were euthanised and the pleural cavities lavaged with ice cold saline (Abbott Laboratories). The lavage fluid was then added to ice cold methanol (final methanol concentration 30%) to lyse cells and precipitate protein. Eicosanoids were determined by enzyme immunoassay by standard methods.

SMILES: CC(CCC(=O)O)(c1ccc(OCc2ccc3ccccc3n2)cc1)c1ccc(OCc2ccc3ccccc3n2)cc1 [Example 1, 4,4-bis(4-(2-quinolylmethoxy)phenyl)pentanoic acid]
- IC50 (5-Lipoxygenase): 40 nM

SMILES: CC(CCC(=O)O)(c1ccc(OCc2ccc3ccccc3n2)cc1)c1ccc(OCc2ccc3ccccc3n2)cc1 [Example 2, 4,4-bis(4-(2-quinolylmethoxy)phenyl)pentanoic acid sodium salt]
- inhibition in vivo at 3 mg/kg (leukotriene biosynthesis): 53%
- IC50 (5-Lipoxygenase; sodium salt): 69 nM

SMILES: CC(CCCON=CC(=O)O)(c1ccc(OCc2ccc3ccccc3n2)cc1)c1ccc(OCc2ccc3ccccc3n2)cc1 [Example 5, [4,4-bis(4-(2-quinolylmethoxy)phenyl)pent-1-yl]iminoxyacetic acid]
- IC50 (5-Lipoxygenase): 30 nM

SMILES: CC(=NOCCCC(C)(c1ccc(OCc2ccc3ccccc3n2)cc1)c1ccc(OCc2ccc3ccccc3n2)cc1)C(=O)O [Example 6, [4,4-bis(4-(2-quinolylmethoxy)phenyl)pent-1-yl]-2-iminoxypropionic acid]
- IC50 (5-Lipoxygenase): 35 nM

SMILES: CC(CCC=NOCC(=O)O)(c1ccc(OCc2ccc3ccccc3n2)cc1)c1ccc(OCc2ccc3ccccc3n2)cc1 [Example 7]
- IC50 (5-Lipoxygenase): 40 nM

SMILES: CC(CCC(=O)O)(c1ccc(OCc2nc3ccccc3s2)cc1)c1ccc(OCc2nc3ccccc3s2)cc1 [Example 8, 4,4-bis(4-(2-benzothiazoylmethoxy)phenyl)pentanoic acid]
- IC50 (5-Lipoxygenase): 46 nM

SMILES: CC(CCC(=O)O)(c1ccc(OCc2nc3ccccc3s2)cc1)c1ccc(OCc2nc3ccccc3s2)cc1 [Example 9, 4,4bis(4-(2-benzothiazoylmethoxy)phenyl)pentanoic acid sodium salt]
- IC50 (5-Lipoxygenase; sodium salt): 50 nM

SMILES: CC(CCC(=O)O)(c1ccc(OCc2ccc3cc(F)ccc3n2)cc1)c1ccc(OCc2ccc3cc(F)ccc3n2)cc1 [Example 11, 4,4-bis(4-(6-fluoro-2-quinolylmethoxy)phenyl)pentanoic acid sodium salt]
- inhibition in vivo at 3 mg/kg (leukotriene biosynthesis): 42%
- IC50 (5-Lipoxygenase): 40 nM

SMILES: CC(C(=O)O)(c1ccc(OCc2ccc3ccccc3n2)cc1)c1ccc(OCc2ccc3ccccc3n2)cc1 [Example 12, 2,2-bis(4-(2-quinolylmethoxy)phenyl)propionic acid]
- IC50 (5-Lipoxygenase): 32 nM

SMILES: CC(CCCC(=O)O)(c1ccc(OCc2ccc3ccccc3n2)cc1)c1ccc(OCc2ccc3ccccc3n2)cc1 [Example 14, 5,5-bis(4-(2-quinolylmethoxy)phenyl)hexanoic acid]
- inhibition in vivo at 3 mg/kg (leukotriene biosynthesis): 32%
- IC50 (5-Lipoxygenase): 43 nM

SMILES: CC(CCC(=O)O)(c1ccc(OCc2ccc3ccccc3n2)c(Cl)c1)c1ccc(OCc2ccc3ccccc3n2)c(Cl)c1 [Example 20, 4,4-bis(3-chloro-4-(2-quinolylmethoxy)phenyl)pentanoic acid]
- IC50 (5-Lipoxygenase): 26 nM

SMILES: CCC(C(=O)O)(c1ccc(OCc2ccc3ccccc3n2)cc1)c1ccc(OCc2ccc3ccccc3n2)cc1 [Example 24, 2,2-bis(4-(2-quinolylmethoxy)phenyl)butyric acid]
- inhibition in vivo at 3 mg/kg (leukotriene biosynthesis): 38%

SMILES: CC(O)(c1ccc(OCc2ccc3ccccc3n2)cc1)c1ccc(OCc2ccc3ccccc3n2)cc1 [Example 25, 1,1-bis(4-(2-quinolylmethoxy)phenyl)ethanol]
- IC50 (5-Lipoxygenase): 50 nM

SMILES: CC(C)(C(=O)O)C(c1ccc(OCc2ccc3ccccc3n2)cc1)c1ccc(OCc2ccc3ccccc3n2)cc1 [Example 26, 2,2-dimethyl-3,3-bis(4-(2-quinolylmethoxy)phenyl)propionic acid sodium salt]
- inhibition in vivo at 3 mg/kg (leukotriene biosynthesis): 50%
- IC50 (5-Lipoxygenase): 80 nM

SMILES: CC(C)(C=NOCC(=O)O)C(c1ccc(OCc2ccc3ccccc3n2)cc1)c1ccc(OCc2ccc3ccccc3n2)cc1 [Example 27, sodium salt]
- inhibition in vivo at 3 mg/kg (leukotriene biosynthesis): 42%
- IC50 (5-Lipoxygenase): 28 nM

SMILES: CC(C)(CON=CC(=O)O)C(c1ccc(OCc2ccc3ccccc3n2)cc1)c1ccc(OCc2ccc3ccccc3n2)cc1 [Example 28, 2,2-dimethyl-3,3-bis(4-(2-quinolylmethoxy)phenyl)-1-propyliminoxyacetic acid]
- IC50 (5-Lipoxygenase): 34 nM

SMILES: O=C(O)C(c1ccc(OCc2ccc3cc(F)ccc3n2)cc1)c1ccc(OCc2ccc3cc(F)ccc3n2)cc1 [Example 30, 2,2-bis(4-(6-fluoro-2-quinolymethoxy)phenyl)acetic acid]
- IC50 (5-Lipoxygenase): 50 nM

SMILES: O=C(O)CON=CC(c1ccc(OCc2ccc3ccccc3n2)cc1)c1ccc(OCc2ccc3ccccc3n2)cc1 [Example 31, 2,2-bis(4-(2-quinolylmethoxy)phenyl)eth-1-yloximinoacetic acid]
- IC50 (5-Lipoxygenase): 35 nM

SMILES: O=C(O)CC(c1ccc(OCc2ccc3ccccc3n2)cc1)c1ccc(OCc2ccc3ccccc3n2)cc1 [Example 34, 3,3-bis(4-(2-quinolylmethoxy)phenyl)propionic acid sodium salt]
- inhibition in vivo at 3 mg/kg (leukotriene biosynthesis): 30%
- IC50 (5-Lipoxygenase): 70 nM

SMILES: CC(=NOCCC(C)(c1ccc(OCc2ccc3ccccc3n2)cc1)c1ccc(OCc2ccc3ccccc3n2)cc1)C(=O)O [Example 36, [3,3-bis-(2-quinolylmethoxyphenyl)but-1-yl]-2-iminoxypropionic acid]
- IC50 (5-Lipoxygenase): 25 nM

SMILES: CC(=NOCCC#CC(O)(c1ccc(OCc2ccc3ccccc3n2)cc1)c1ccc(OCc2ccc3ccccc3n2)cc1)C(=O)O [Example 38, [5,5-bis(4-(2-quinolylmethoxy)phenyl)-5-hydroxy-3-pentyn-1-yl]-2-iminoxypropionic acid sodium salt]
- inhibition in vivo at 3 mg/kg (leukotriene biosynthesis): 40%
- IC50 (5-Lipoxygenase): 60 nM
